# How the values were obtained:
# MRSA KS6 = assay: MIC, broth microdilution, MRSA KS6; format: cell-based, Staphylococcus aureus; details: for MIC-fold improvement vs. vancomycin: MRSA KS6, ratio of MIC of vancomycin and MIC of analogue; for MIC: Staphylococcus aureus MRSA KS6, read-out: MIC
# Protocol: (§1) The minimum inhibitory concentration (MIC) was determined using the broth microdilution method according to the antimicrobial susceptibility testing standards of the clinical and laboratory standards institute ([Clinical and Laboratory Standards Institute [CLSI], 2012]). Ultrapure water and non-inoculated broth were used as controls. In one case, a final concentration of 10 μM vancomycin was included with the vancomycin analog or control antibiotic.
# S. aureus VISA/HIP5827 = assay: MIC, broth microdilution, vancomycin-intermediate S. aureus VISA HIP5827; format: cell-based, Staphylococcus aureus; details: for MIC: Staphylococcus aureus VISA/HIP5827, read-out: MIC; for MIC-fold improvement vs. vancomycin: VISA/HIP5827, ratio of MIC of vancomycin and MIC of analogue
# Protocol: as §1
# [1] = tested on: human cervix carcinoma (HeLa) cells; assay: Cytostatic activity, HeLa cell proliferation; format: cell-based; details: mean ± SD of three experiments; highest concentration tested 250 µM; 4 days; read-out: Toxicity (IC50) HeLa
# Protocol: (§2) Murine leukemia (L1210), human T-lymphocyte (CEM) and the human cervix carcinoma (HeLa) cell line were suspended at 300,000–500,000 cells/mL of culture medium, and 100 μL of a cell suspension was added to 100 μL of an appropriate dilution of the test compounds in wells of 96-well microtiter plates. After incubation at 37°C for 2 (L1210), 3 (CEM), or 4 (HeLa) days, the cell number was determined using a Coulter counter. The IC50 was defined per cell type as the compound concentration required to inhibit cell proliferation by 50% compared to the negative control ([Glowacka et al., 2017]).
# E. faecalis VSE 1 = assay: MIC, broth microdilution, vancomycin-sensitive E. faecalis (VSE 1); format: cell-based, Enterococcus faecalis; details: for MIC: Enterococcus faecalis VSE 1 (vancomycin-sensitive), read-out: MIC; for MIC-fold improvement vs. vancomycin: VSE 1, ratio of MIC of vancomycin and MIC of analogue
# Protocol: as §1
# [2] = tested on: S. aureus VSSA (ATCC 6538); assay: MIC, broth microdilution, vancomycin-sensitive S. aureus (VSSA/MSSA, ATCC 6538); format: cell-based, Staphylococcus aureus; details: for MIC: Staphylococcus aureus VSSA, read-out: MIC; for MIC-fold improvement vs. vancomycin: VSSA, ratio of MIC of vancomycin and MIC of analogue
# Protocol: as §1
# E. faecalis VRE 29 = assay: MIC, broth microdilution, vancomycin-resistant E. faecalis VRE 29 (VanA); format: cell-based, Enterococcus faecalis; details: for MIC: Enterococcus faecalis VRE 29 (vancomycin-resistant), read-out: MIC; for MIC-fold improvement vs. vancomycin: VRE 29, ratio of MIC of vancomycin and MIC of analogue
# Protocol: as §1
# MRSA KS89 = assay: MIC, broth microdilution, MRSA KS89; format: cell-based, Staphylococcus aureus; details: for MIC-fold improvement vs. vancomycin: MRSA KS8, ratio of MIC of vancomycin and MIC of analogue; for MIC: Staphylococcus aureus MRSA KS8, read-out: MIC
# Protocol: as §1
# MRSA KS2 = assay: MIC, broth microdilution, MRSA KS2; format: cell-based, Staphylococcus aureus; details: for MIC-fold improvement vs. vancomycin: MRSA KS2, ratio of MIC of vancomycin and MIC of analogue; for MIC: Staphylococcus aureus MRSA KS2, read-out: MIC
# Protocol: as §1
# E. faecalis VRE 6 = assay: MIC, broth microdilution, vancomycin-resistant E. faecalis VRE 6 (VanA); format: cell-based, Enterococcus faecalis; details: for MIC: Enterococcus faecalis VRE 6 (vancomycin-resistant), read-out: MIC; for MIC-fold improvement vs. vancomycin: VRE 6, ratio of MIC of vancomycin and MIC of analogue
# Protocol: as §1
# S. aureus VRSA = assay: MIC, broth microdilution, vancomycin-resistant S. aureus (VRSA); format: cell-based, Staphylococcus aureus; details: for MIC: Staphylococcus aureus VRSA, read-out: MIC; for MIC-fold improvement vs. vancomycin: VRSA, ratio of MIC of vancomycin and MIC of analogue
# Protocol: as §1
# E. faecalis VRE 53 = assay: MIC, broth microdilution, vancomycin-resistant E. faecalis VRE 53 (VanA); format: cell-based, Enterococcus faecalis; details: for MIC: Enterococcus faecalis VRE 53 (vancomycin-resistant), read-out: MIC; for MIC-fold improvement vs. vancomycin: VRE 53, ratio of MIC of vancomycin and MIC of analogue
# Protocol: as §1
# [3] = tested on: Murine leukemia (L1210) cells; assay: Cytostatic activity, L1210 cell proliferation; format: cell-based; details: mean ± SD of three experiments; highest concentration tested 250 µM; 2 days; read-out: Toxicity (IC50) L1210
# Protocol: as §2
# MRSA KS1 = assay: MIC, broth microdilution, MRSA KS1; format: cell-based, Staphylococcus aureus; details: for MIC-fold improvement vs. vancomycin: MRSA KS1, ratio of MIC of vancomycin and MIC of analogue; for MIC: Staphylococcus aureus MRSA KS1, read-out: MIC
# Protocol: as §1
# [4] = tested on: human T-lymphocyte (CEM) cells; assay: Cytostatic activity, CEM cell proliferation; format: cell-based; details: mean ± SD of three experiments; highest concentration tested 250 µM; 3 days; read-out: Toxicity (IC50) CEM
# Protocol: as §2
# [5] = tested on: L1210, CEM and HeLa cell lines; assay: Cytostatic activity, average or summary over L1210, CEM and HeLa; format: cell-based; details: average of L1210, CEM and HeLa; read-out: Toxicity (IC50) Average
# Protocol: as §2
# E. faecalis VRE 37 = assay: MIC, broth microdilution, vancomycin-resistant E. faecalis VRE 37 (VanA); format: cell-based, Enterococcus faecalis; details: for MIC: Enterococcus faecalis VRE 37 (vancomycin-resistant), read-out: MIC
# Protocol: as §1
MIC-fold improvement vs. vancomycin (MRSA KS6),MIC (MRSA KS6) [µM],MIC (S. aureus VISA/HIP5827) [µM],MIC-fold improvement vs. vancomycin (S. aureus VISA/HIP5827),MIC (E. faecalis VSE 1) [µM],MIC-fold improvement vs. vancomycin (E. faecalis VSE 1),MIC [2] [µM],MIC-fold improvement vs. vancomycin [2],MIC (E. faecalis VRE 29) [µM],MIC-fold improvement vs. vancomycin (MRSA KS89),MIC (MRSA KS89) [µM],MIC-fold improvement vs. vancomycin (MRSA KS2),MIC (MRSA KS2) [µM],MIC (E. faecalis VRE 6) [µM],MIC-fold improvement vs. vancomycin (E. faecalis VRE 6),MIC (S. aureus VRSA) [µM],MIC-fold improvement vs. vancomycin (S. aureus VRSA),MIC (E. faecalis VRE 53) [µM],MIC-fold improvement vs. vancomycin (E. faecalis VRE 53),SMILES,IC50 [1] [µM],also measured
1,0.78,0.39,16,0.78,2,0.39,2,12.5,2,0.39,2,0.39,6.25,32,12.5,8,12.5,32,CNC(CC(C)C)C(=O)NC1C(=O)NC(CC(N)=O)C(=O)NC2C(=O)NC3C(=O)NC(C(=O)NC(C(=O)NCC(=O)Nc4cccc(OC)c4)c4cc(O)cc(O)c4-c4cc3ccc4O)C(O)c3ccc(c(Cl)c3)Oc3cc2cc(c3OC2OC(CO)C(O)C(O)C2OC2CC(C)(N)C(O)C(C)O2)Oc2ccc(cc2Cl)C1O (stereo not drawn) [Vanc-12],194 ± 78,IC50 [3]: > 250 µM; MIC-fold improvement vs. vancomycin (MRSA KS1): 2; MIC (MRSA KS1): 0.39 µM; IC50 [4]: > 250 µM; IC50 [5]: 231 µM; MIC (E. faecalis VRE 37): 25 µM
4,0.20,0.78,8,0.39,4,0.39,2,6.25,4,0.20,4,0.20,1.56,128,0.78,128,6.25,64,CN[C@H](CC(C)C)C(=O)N[C@H]1C(=O)N[C@@H](CC(N)=O)C(=O)N[C@H]2C(=O)N[C@H]3C(=O)N[C@H](C(=O)N[C@H](C(=O)NCC(=O)Nc4ccc(-c5cn(-c6ccccc6)nn5)cc4)c4cc(O)cc(O)c4-c4cc3ccc4O)[C@H](O)c3ccc(c(Cl)c3)Oc3cc2cc(c3O[C@@H]2O[C@H](CO)[C@@H](O)[C@H](O)[C@H]2O[C@H]2C[C@](C)(N)[C@H](O)[C@H](C)O2)Oc2ccc(cc2Cl)[C@H]1O [Vanc-77],58 ± 7,"MIC-fold improvement vs. vancomycin (E. faecalis VRE 29): 64; IC50 [3]: 192 ± 101 µM; MIC-fold improvement vs. vancomycin (MRSA KS1): >8; MIC (MRSA KS1): <0.10 µM; IC50 [4]: 26 ± 1 µM; IC50 [5]: 92 µM; MIC (E. faecalis VRE 37): 6.25 µM; MIC-fold improvement vs. vancomycin (E. faecalis VRE 37; VRE 37, ratio of MIC of vancomycin and MIC of analogue): 64"
2,0.39,1.56,4,0.78,2,0.78,1,12.5,2,0.39,2,0.39,6.25,32,3.13,32,25,16,CN[C@H](CC(C)C)C(=O)N[C@H]1C(=O)N[C@@H](CC(N)=O)C(=O)N[C@H]2C(=O)N[C@H]3C(=O)N[C@H](C(=O)N[C@H](C(=O)NCC(=O)Nc4ccc(C(F)(F)F)cc4)c4cc(O)cc(O)c4-c4cc3ccc4O)[C@H](O)c3ccc(c(Cl)c3)Oc3cc2cc(c3O[C@@H]2O[C@H](CO)[C@@H](O)[C@H](O)[C@H]2O[C@H]2C[C@](C)(N)[C@H](O)[C@H](C)O2)Oc2ccc(cc2Cl)[C@H]1O [Vanc-40],> 250,MIC-fold improvement vs. vancomycin (E. faecalis VRE 29): 32; IC50 [3]: > 250 µM; MIC-fold improvement vs. vancomycin (MRSA KS1): 2; MIC (MRSA KS1): 0.39 µM; IC50 [4]: > 250 µM; IC50 [5]: > 250 µM; MIC (E. faecalis VRE 37): 12.5 µM

# From publication PMC6001238, “Iterative Chemical Engineering of Vancomycin Leads to Novel Vancomycin Analogs With a High in Vitro Therapeutic Index” (Frontiers in Microbiology, 2018)
